Measurements from article PMC6702965, “Inhibition of Porcine Viruses by Different Cell-Targeted Antiviral Drugs” (Frontiers in Microbiology, 2019).
Like-named read-outs stand apart in the source and are kept apart here.

Legend:
[1] = system: ASFV Ba71V; experiment: microbe, parasite or virus in culture; type: cell-based, African swine fever virus; conditions: for IC50: African swine fever virus
[2] = system: ASFV isolate E70; experiment: microbe, parasite or virus in culture; type: cell-based; conditions: African swine fever virus, COS, read-out: IC50 on virus yield
[3] = system: ASFV; set-up: species or system African swine fever virus
[4] = system: FMDV; set-up: species or system foot and mouth disease virus
[5] = system: ASFV Ba71V; type: cell-based, African swine fever virus
[6] = system: ASFV Ba71V; type: cell-based, African swine fever virus; remark: listed apart in the source
[7] = MTT cell viability assay; conditions: African green monkey, Vero cells
[8] = MTT cell viability assay; conditions: African green monkey, COS cells
[9] = MTT cell viability assay; conditions: hamster, BHK cells
[10] = MTT cell viability assay; conditions: pig, IBRS-2 cells
[11] = system: FMDV C-S8; experiment: microbe, parasite or virus in culture; type: cell-based, foot and mouth disease virus
[12] = system: FMDV O-UK; experiment: microbe, parasite or virus in culture; type: cell-based, foot and mouth disease virus
[13] = system: VSV Indiana; experiment: microbe, parasite or virus in culture; type: cell-based, vesicular stomatitis virus
[14] = system: SVDV SP93; experiment: microbe, parasite or virus in culture; type: cell-based, swine vesicular disease virus
[15] = system: FMDV C-S8; type: cell-based, foot and mouth disease virus
[16] = system: FMDV C-S8; type: cell-based, foot and mouth disease virus; remark: listed apart in the source
[17] = system: FMDV C-S8; type: cell-based, foot and mouth disease virus; remark: listed apart in the source
[18] = system: FMDV C-S8; set-up: species or system C57 mice; conditions: mouse, in vivo
[19] = C57, mouse, in vivo
[20] = system: FMDV C-S8; conditions: mouse, in vivo
[21] = system: ASFV Ba71V; conditions: cited from earlier work
[22] = system: VSV; conditions: cited from earlier work
[23] = system: FMDV; conditions: cited from earlier work
[24] = system: SVDV; conditions: ref Vazquez-Calvo et al., 2011; cited from earlier work
[25] = read-out: IC50 on ASFV production

C/C=C/C/C=C/CCC(=O)[C@H]1O[C@H]1C(N)=O [CRL, cerulenin]
IC50 [1, 25]: 9 µM
IC50 [2]: 3 µM
Direct virucidal effect (virotoxicity) [3]: no direct toxicity
Direct virucidal effect (virotoxicity) [4]: no direct toxicity
Expression of early virus protein p32 [5]: very low expression
Expression of late ASFV proteins (p17, p12) [5]: No late ASFV proteins
Effect of time of addition on virus yield [6]: recovery of virus productivity was observed when CRL was added as early as 0 h after infection
CC50 at 24 h [7]: 45 µM
CC50 at 24 h [8]: 60 µM
CC50 at 24 h [9]: 60 µM
CC50 at 24 h [10]: 40 µM

O=C(O)c1cc(O)c(O)c(O)c1 [G, gallic acid]
Inhibition of FMDV growth [11]: Neither G nor PG inhibited FMDV growth

CCCCCCCCCCCCOC(=O)c1cc(O)c(O)c(O)c1 [LG, lauryl gallate]
Virus yield reduction [1]: about 3 log.u.
IC50 ([1]; COS, 24 h, read-out: IC50 on virus yield): 0.4 µM
IC50 ([1]; Vero, 24 h, read-out: IC50 on virus yield): 1 µM
IC50 [2]: 2 µM
Decrease in virus production [11]: at least 1 log.u.
Reduction of virus yield [11]: up to 2 log.u
IC50 ([11]; Foot-and-mouth disease virus, BHK-21, read-out: IC50 on virus yield): 0.2 to 2.5 µM
Decrease in virus production [12]: at least 1 log.u.
IC50 ([12]; Foot-and-mouth disease virus, read-out: IC50 on virus yield): 0.7 µM
Reduction of virus productivity [13]: 2 log.u.
IC50 ([13]; Vesicular stomatitis virus, BHK-21, read-out: IC50 on virus yield): 0.9 µM
Reduction of virus productivity [14]: 1 log.u.
IC50 ([14]; Enterovirus B, read-out: IC50 on virus yield): 1.7 µM
Direct virucidal effect (virotoxicity) [3]: no direct toxicity
Direct virucidal effect (virotoxicity) [4]: no direct toxicity
Expression of structural (VP1) and non-structural (3C) FMDV proteins [15]: significantly reduced
Amount of intracellular FMDV RNA [16]: not affected
Extracellular virus (RNA) [16]: significantly reduced
Positive strand viral RNA synthesis [16]: transiently inhibited
Time of LG addition up to which virus productivity was blocked [17]: up to 7 h.p.i.
Viral RNA copies (VRC) in blood, spleen, lung, heart and thymus [18]: significant reduction
Non-toxic working concentrations [19]: up to 200 mg/kg
Body weight [20]: lower weights
Protection against FMDV challenge [20]: no protection
Survival rate [20]: 70%
Time of LG addition up to which virus production was inhibited [21]: up to 5 h.p.i.
CC50 at 24 h [7]: 45 µM
CC50 at 24 h [8]: 33 µM
CC50 at 24 h [9]: 75 µM
CC50 at 24 h [10]: 30 µM

CCCCCCCCOC(=O)c1cc(O)c(O)c(O)c1 [OG, octyl gallate]
Effect on ASFV infection [1]: inhibitory effect
Reduction of virus yields [11]: 2 log.u.

CCCOC(=O)c1cc(O)c(O)c(O)c1 [PG, propyl gallate]
Inhibition of FMDV growth [11]: Neither G nor PG inhibited FMDV growth

CCCC(CCC)C(=O)O [VPA, valproic acid]
IC50 [1, 25]: 2500 to 3000 µM
IC50 [2]: 2500 µM
Direct virucidal effect (virotoxicity) [3]: no direct toxicity
Direct virucidal effect (virotoxicity) [4]: no direct toxicity
Expression of early virus protein p32 [5]: very low expression
Expression of late ASFV proteins (p17, p12) [5]: No late ASFV proteins
Effect of time of addition on virus yield [6]: gradual recovery of virus yields
Susceptibility of infection to the drug [22]: susceptible
Susceptibility of infection to the drug [23]: not affected
Susceptibility of infection to the drug [24]: not affected
CC50 at 24 h [7]: 50000 µM
